According to PMC11346435, “Regulation of Rubisco activity by interaction with chloroplast metabolites” (Biochemical Journal, 2024):
Like-named read-outs stand apart in the source and are kept apart here.

Experiments:
[1] = biological target: T1, Rubisco (ribulose-1,5-bisphosphate carboxylase/oxygenase), carbamylated rice enzyme (Oryza sativa, UniProt P0C512); test: […]CO2 incorporation assay with purified Rubisco, dose-response and Vmax/Km kinetics (competitive inhibition); format: biochemical; settings: read-out: % inhibition at 12 mM
T1 construct: gene rbcL; Rubisco purified from rice leaves (cv. Nipponbare), L8S8 complex, carbamylated; with Rubisco small subunit (L8S8 holoenzyme)

[2] = system: O=C(COP(=O)(O)O)[C@H](O)[C@H](O)COP(=O)(O)O; test: purified protein; settings: Mg2+; carbamylated Lys201 (activator CO2) catalytic site
[3] = biological target: T1, Rubisco (ribulose-1,5-bisphosphate carboxylase/oxygenase), carbamylated rice enzyme; test: biochemical; set-up: 14CO2 incorporation by purified activated rice Rubisco; apparent Ki from Michaelis-Menten kinetics; settings: noncompetitive-like, apparent Ki
Method: Water was used as control and for each metabolite an intermediate and the highest concentration were used, with the exceptions of CABP for which the maximum concentration was 0.2 µM (as at the maximum concentration 0.3 µM the activity was very low) and for 3-PGA we used 8 and 12 mM (as these were the concentrations that affected Rubisco activity under saturating substrate concentrations). Basic assay buffer (100 mM Bicine-NaOH, pH 8.2, 20 mM MgCl2 and 2 mM KH2PO4) was sparged with compressed air which passed through soda lime and 1 M NaOH to remove CO2. […] The incubation with metabolite and activity were performed as described above. Vmax and Km were calculated using the Michaelis-Menten equation [58]. […] The incubation and activity were performed as described above and the activity was expressed as % of control samples (where control is 100%). Given the constraints associated with two substrate Rubisco activity and its interaction with tight binding inhibitions, we used a simplistic approximation to estimate apparent inhibitor constants (Kiapp) based on the Michaelis-Menten equations [59] (eqn 1) and on the ‘quotient velocity plot’ [60] (eqn 2). Where [I] is the inhibitor concentration and α was estimated according to the inhibition type: […]

[4] = biological target: T1, Rubisco (ribulose-1,5-bisphosphate carboxylase/oxygenase), carbamylated rice enzyme; test: […]CO2 incorporation assay with purified Rubisco, dose-response and Vmax/Km kinetics; format: biochemical; settings: read-out: % inhibition at 0.3 μM
[5] = biological target: T1, Rubisco (ribulose-1,5-bisphosphate carboxylase/oxygenase), carbamylated rice enzyme; test: as above; format: biochemical
[6] = Eq. 1 (Michaelis-Menten), read-out: Ki^app (Eq. 1)
[7] = Eq. 2 (quotient velocity plot), read-out: Ki^app (Eq. 2)

T1 sequence (Q0INY7 47-175, other chains not shown): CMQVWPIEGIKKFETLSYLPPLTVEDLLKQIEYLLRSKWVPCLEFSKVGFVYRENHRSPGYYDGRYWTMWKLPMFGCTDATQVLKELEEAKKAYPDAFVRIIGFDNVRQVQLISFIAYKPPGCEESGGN

Ki [3, 6] [µM] | Ki [3, 7] [µM] | Molecule | other results
– | – | O=C(O)[C@H](O)COP(=O)(O)O [3-PGA] | inhibition at 12000 µM [1]: ~30%
– | – | Rubisco (ribulose-1,5-bisphosphate carboxylase/oxygenase), carbamylated rice enzyme (Oryza sativa Japonica Group) | Km [2]: 78.08 ± 3.29 µM
0.12 ± 0.02 | 0.1 ± 0.02 | O=C(O)[C@@](O)(COP(=O)(O)O)[C@H](O)[C@H](O)COP(=O)(O)O [CABP] | inhibition at 0.3 µM [4]: ~86%
0.44 ± 0.08 | 0.44 ± 0.01 | O=C(O)[C@@](O)(COP(=O)(O)O)[C@H](O)[C@H](O)CO [CA1P] | 14CO2 incorporation assay with purified Rubisco, dose-response and Vmax/Km kinet [5]: activity decreases by half at 0.3
